Test results taken from the NIST ThermoML archive (doi:10.1021/je200124h).

Legend:
[1] = wn = mass fraction of the nth substance listed; conditions: for mass density / viscosity: Liquid; for mass density: Pycnometric method; for surface tension liquid-gas: Ring tensiometer
[2] = for surface tension liquid-gas: Ring tensiometer; for viscosity / mass density: 101.33 kPa, Liquid; for viscosity: Capillary tube (Ostwald / Ubbelohde) method; for mass density: Pycnometric method

O=S1(=O)CCCC1 [sulfolane] + O
[1], 101 kPa
Conditions | mass density, 303.15 K [kg/m3] | mass density, 313.15 K [kg/m3] | mass density, 323.15 K [kg/m3] | mass density, 333.15 K [kg/m3] | mass density, 343.15 K [kg/m3] | viscosity, 303.15 K [mPa·s] | viscosity, 313.15 K [mPa·s] | viscosity, 323.15 K [mPa·s] | viscosity, 333.15 K [mPa·s] | viscosity, 343.15 K [mPa·s]
w1 = 0.0346 | 1003 | 999.7 | 995.2 | 990.1 | 984.3 | 0.84 | 0.69 | 0.58 | 0.49 | 0.43
w1 = 0.0487 | 1007 | 1003 | 998.2 | 993 | 987 | 0.85 | 0.7 | 0.59 | 0.5 | 0.44
w1 = 0.0721 | 1012 | 1007 | 1003 | 998.9 | 991.7 | 0.88 | 0.73 | 0.61 | 0.52 | 0.45
w1 = 0.1022 | 1020 | 1016 | 1010 | 1005 | 998 | 0.92 | 0.76 | 0.64 | 0.55 | 0.48
w1 = 0.1635 | 1038 | 1032 | 1026 | 1020 | 1012 | 1.02 | 0.84 | 0.71 | 0.61 | 0.54

CC(O)CNCC(C)O (configuration not stated) [N-(2-hydroxypropyl)-2-hydroxy-1-propanamine] + O
[1], w1 = 0.3873
Conditions | surface tension liquid-gas [mN/m]
303.15 K | 45.3
313.15 K | 44.4
323.15 K | 43.2
333.15 K | 42.1
343.15 K | 40.5

[1], w1 = 0.3873
Conditions | mass density, 303.15 K [kg/m3] | mass density, 313.15 K [kg/m3] | mass density, 323.15 K [kg/m3] | mass density, 333.15 K [kg/m3] | mass density, 343.15 K [kg/m3] | viscosity, 303.15 K [mPa·s] | viscosity, 313.15 K [mPa·s] | viscosity, 323.15 K [mPa·s] | viscosity, 333.15 K [mPa·s] | viscosity, 343.15 K [mPa·s]
101 kPa | – | – | – | – | – | 5.42 | 3.74 | 2.56 | 1.88 | 1.42
101.3 kPa | 1016 | 1012 | 1006 | 1000 | 994.5 | – | – | – | – | –

C1CNCCN1 [piperazine] + O
[1], w1 = 0.0516
Conditions | surface tension liquid-gas [mN/m]
303.15 K | 69.56
313.15 K | 67.98
323.15 K | 66.49
333.15 K | 65.17

[1], 101 kPa, w1 = 0.0516
Conditions | mass density [kg/m3] | viscosity [mPa·s]
303.15 K | 998.34 | 0.959
313.15 K | 993.9 | 0.775
323.15 K | 989.79 | 0.641
333.15 K | 985.1 | 0.542

O=S1(=O)CCCC1 [sulfolane]
[2]
Conditions | mass density [kg/m3] | surface tension liquid-gas [mN/m] | viscosity [mPa·s]
303.15 K | 1262.3 | 47.95 | 10.18
313.15 K | 1254 | 47.22 | 7.85
323.15 K | 1245.7 | 46.61 | 6.15
333.15 K | 1236.5 | 45.74 | 4.4
343.15 K | 1229 | 45.16 | 3.57

OCCN(CCO)CCO [triethanolamine]
[2]
Conditions | mass density [kg/m3] | surface tension liquid-gas [mN/m] | viscosity [mPa·s]
303.15 K | 1119.6 | 45.13 | 405.6
313.15 K | 1113.8 | 43.54 | 208.6
323.15 K | 1107.9 | 41.85 | 116
333.15 K | 1102 | 40.04 | 64.55
343.15 K | 1096.2 | 38.11 | 38.79

OCCN(CCO)CCO [triethanolamine] + O
[1], w1 = 0.4227
Conditions | surface tension liquid-gas [mN/m]
303.15 K | 54.5
313.15 K | 53.8
323.15 K | 53
333.15 K | 52.3
343.15 K | 51.4

[1], w1 = 0.4227
Conditions | mass density, 303.15 K [kg/m3] | mass density, 313.15 K [kg/m3] | mass density, 323.15 K [kg/m3] | mass density, 333.15 K [kg/m3] | mass density, 343.15 K [kg/m3] | viscosity, 303.15 K [mPa·s] | viscosity, 313.15 K [mPa·s] | viscosity, 323.15 K [mPa·s] | viscosity, 333.15 K [mPa·s] | viscosity, 343.15 K [mPa·s]
101 kPa | – | – | – | – | – | 4.13 | 2.91 | 2.16 | 1.67 | 1.36
101.3 kPa | 1052 | 1048 | 1043 | 1037 | 1032 | – | – | – | – | –
